# pIC50: −log10 of the molar value.
# Biological target: T1, human Nav1.8 (hNav1.8) ion channel (Homo sapiens, UniProt Q9Y5Y9)
# T1 construct: expressed in transfected cells; host or cells: HEK293
# Assay: Nav1.8 channel inhibition, estimated IC50 (one or more of: fluorescence inhibition assay, PatchXpress, IonFlux HT automated patch clamp)
# Type: cell-based
# Conditions: HEK293 cells stably expressing hNav1.8; method used per compound not stated; read-out: Activity range (estimated IC50)
# Procedure, shortened: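 HEK293 cells stably expressing hNav1.8 with β1/β2 subunits; IC50 from the fluorescence assay and/or automated whole-cell patch clamp (PatchXpress, IonFlux HT). Fluorescence: ANG-2 Na dye, 5 min compound preincubation (0.02–5 μM, 1% DMSO) with 30 μM ouabain, stimulation by 10 μM deltamethrin, peak signal fit logistically. PatchXpress: holding potential reset to Vhalf, inhibition normalized to control/washout currents.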
# T1 sequence (Q9Y5Y9 whole entry): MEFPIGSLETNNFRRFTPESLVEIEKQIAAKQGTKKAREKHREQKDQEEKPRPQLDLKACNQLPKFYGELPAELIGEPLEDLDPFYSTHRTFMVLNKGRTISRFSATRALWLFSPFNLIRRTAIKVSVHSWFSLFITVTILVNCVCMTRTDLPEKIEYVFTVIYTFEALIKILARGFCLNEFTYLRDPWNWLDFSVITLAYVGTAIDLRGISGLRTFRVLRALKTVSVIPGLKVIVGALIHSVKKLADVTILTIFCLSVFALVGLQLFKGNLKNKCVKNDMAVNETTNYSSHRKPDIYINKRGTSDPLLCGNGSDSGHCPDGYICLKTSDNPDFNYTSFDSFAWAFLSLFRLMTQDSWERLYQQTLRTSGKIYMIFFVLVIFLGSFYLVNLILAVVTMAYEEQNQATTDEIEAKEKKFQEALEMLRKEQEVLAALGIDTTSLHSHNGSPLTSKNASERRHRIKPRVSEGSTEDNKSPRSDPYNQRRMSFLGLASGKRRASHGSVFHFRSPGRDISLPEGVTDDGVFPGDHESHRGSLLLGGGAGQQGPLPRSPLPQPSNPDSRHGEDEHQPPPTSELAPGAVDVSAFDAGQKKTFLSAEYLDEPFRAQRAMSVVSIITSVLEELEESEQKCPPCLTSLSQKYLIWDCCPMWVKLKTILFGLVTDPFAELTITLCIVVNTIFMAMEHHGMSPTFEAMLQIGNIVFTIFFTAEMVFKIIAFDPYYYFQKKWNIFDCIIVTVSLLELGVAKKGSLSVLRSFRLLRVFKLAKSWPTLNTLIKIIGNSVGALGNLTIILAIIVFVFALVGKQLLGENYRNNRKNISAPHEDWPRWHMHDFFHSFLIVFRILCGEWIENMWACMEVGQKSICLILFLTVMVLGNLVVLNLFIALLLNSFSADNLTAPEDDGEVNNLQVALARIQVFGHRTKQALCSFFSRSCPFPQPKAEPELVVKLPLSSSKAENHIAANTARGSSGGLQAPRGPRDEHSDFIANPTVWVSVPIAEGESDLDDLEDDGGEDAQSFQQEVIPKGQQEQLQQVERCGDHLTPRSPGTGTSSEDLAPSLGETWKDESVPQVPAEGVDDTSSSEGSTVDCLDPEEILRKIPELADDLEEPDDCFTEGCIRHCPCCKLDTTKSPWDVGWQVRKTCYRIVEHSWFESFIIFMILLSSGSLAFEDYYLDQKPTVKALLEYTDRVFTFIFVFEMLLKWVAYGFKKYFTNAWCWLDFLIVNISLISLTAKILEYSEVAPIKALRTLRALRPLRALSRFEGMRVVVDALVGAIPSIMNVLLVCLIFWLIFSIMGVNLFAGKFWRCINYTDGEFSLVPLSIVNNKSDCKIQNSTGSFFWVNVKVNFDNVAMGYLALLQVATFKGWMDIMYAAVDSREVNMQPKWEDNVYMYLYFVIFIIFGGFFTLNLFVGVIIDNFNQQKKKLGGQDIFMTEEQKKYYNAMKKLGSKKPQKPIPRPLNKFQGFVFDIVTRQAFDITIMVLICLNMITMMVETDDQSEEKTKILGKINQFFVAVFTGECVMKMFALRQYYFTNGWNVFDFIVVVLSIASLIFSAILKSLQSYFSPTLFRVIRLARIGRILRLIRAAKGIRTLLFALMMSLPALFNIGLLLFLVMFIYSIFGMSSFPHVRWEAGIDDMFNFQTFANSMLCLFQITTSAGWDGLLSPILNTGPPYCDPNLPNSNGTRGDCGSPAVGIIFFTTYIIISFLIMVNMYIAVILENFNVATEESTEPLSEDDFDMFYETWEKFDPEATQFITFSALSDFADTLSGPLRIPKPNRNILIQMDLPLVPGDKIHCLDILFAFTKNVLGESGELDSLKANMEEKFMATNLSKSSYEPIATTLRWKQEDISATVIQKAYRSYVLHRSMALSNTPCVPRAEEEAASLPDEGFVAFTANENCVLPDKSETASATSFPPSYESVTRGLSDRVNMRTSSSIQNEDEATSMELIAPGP
row,pIC50,Compound
1,6.00 to 6.30,"Cn1nccc1NC(=O)c1cc(C(F)(F)F)cnc1Oc1ccc(OC(F)(F)F)cc1Cl [Example 167, 2-[2-chloro-4-(trifluoromethoxy)phenoxy]-N-(2-methylpyrazol-3-yl)-5-(trifluoromethyl)pyridine-3-carboxamide]"
2,6.00 to 6.30,"Cc1ccc(S(C)(=O)=O)cc1NC(=O)c1cc(C(F)(F)F)cnc1Oc1ccc(OC(F)(F)F)cc1Cl [Example 168, 2-[2-chloro-4-(trifluoromethoxy)phenoxy]-N-(2-methyl-5-methylsulfonyl-phenyl)-5-(trifluoromethyl)pyridine-3-carboxamide]"
3,< 6.00,"Cn1ncnc1NC(=O)c1cc(C(F)(F)F)cnc1Oc1ccc(OC(F)(F)F)cc1Cl [Example 169, 2-[2-chloro-4-(trifluoromethoxy)phenoxy]-N-(2-methyl-1,2,4-triazol-3-yl)-5-(trifluoromethyl)pyridine-3-carboxamide]"
4,< 6.00,"Cn1cnc(NC(=O)c2cc(C(F)(F)F)cnc2Oc2ccc(OC(F)(F)F)cc2Cl)n1 [Example 170, 2-[2-chloro-4-(trifluoromethoxy)phenoxy]-N-(1-methyl-1,2,4-triazol-3-yl)-5-(trifluoromethyl)pyridine-3-carboxamide]"
5,> 6.30,"CN=S(C)(=O)c1cccc(NC(=O)c2cc(C(F)(F)F)cnc2Oc2ccc(OC)cc2OC)c1 (stereo not drawn) [Example 171, 2-(2,4-dimethoxyphenoxy)-N-[3-(N,S-dimethylsulfonimidoyl)phenyl]-5-(trifluoromethyl)pyridine-3-carboxamide]"
6,> 6.30,"COc1ccc(Oc2ncc(C(F)(F)F)cc2C(=O)Nc2cccc(S(C)(=N)=O)c2)c(OC)c1 (stereo not drawn) [Example 172, 2-(2,4-dimethoxyphenoxy)-N-[3(methylsulfonimidoyl)phenyl]-5-(trifluoromethyl)pyridine-3-carboxamide]"
7,< 6.00,"COc1ccc(Oc2ncc(C(F)(F)F)cc2C(=O)Nc2ccnnc2)c(OC)c1 [Example 173, 2-(2,4-dimethoxyphenoxy)-N-pyridazin-4-yl-5-(trifluoromethyl)pyridine-3-carboxamide]"
8,> 6.30,"CS(=N)(=O)c1cccc(NC(=O)c2cc(C(F)(F)F)cnc2Oc2ccc(F)cc2F)c1 (stereo not drawn) [Example 174, 2-(2,4-difluorophenoxy)-N-[3-(methylsulfonimidoyl)phenyl]-5-(trifluoromethyl)pyridine-3-carboxamide]"
9,> 6.30,"CN=S(C)(=O)c1cccc(NC(=O)c2cc(C(F)(F)F)cnc2Oc2ccc(F)cc2F)c1 (stereo not drawn) [Example 175, 2-(2,4-difluorophenoxy)-N-[3-(N,S-dimethylsulfonimidoyl)phenyl]-5(trifluoromethyl)pyridine-3-carboxamide]"
10,< 6.00,"O=C(Nc1ccnnc1)c1cc(C(F)(F)F)cnc1Oc1ccc(F)cc1F [Example 176, 2-(2,4-difluorophenoxy)-N-pyridazin-4-yl-5-(trifluoromethyl)pyridine-3-carboxamide]"
11,6.00 to 6.30,"COc1cc(F)ccc1Oc1nc(C)c(C#N)cc1C(=O)Nc1cccc(S(C)(=O)=O)c1 [Example 177, 5-cyano-2-(4-fluoro-2-methoxy-phenoxy)-6-methyl-N-(3-methylsulfonylphenyl)pyridine-3-carboxamide]"
12,> 6.30,"COc1cc(F)ccc1Oc1nc(OC)c(F)cc1C(=O)Nc1cccc(S(C)(=O)=O)c1 [Example 178, 5-fluoro-2-(4-fluoro-2-methoxy-phenoxy)-6-methoxy-N-(3-methylsulfonylphenyl)pyridine-3-carboxamide]"
13,> 6.30,"COc1cc(F)ccc1Oc1ncc(OC(F)F)cc1C(=O)Nc1cccc(S(C)(=O)=O)c1 [Example 179, 5-(difluoromethoxy)-2-(4-fluoro-2-methoxy-phenoxy)-N-(3-methylsulfonylphenyl)pyridine-3-carboxamide]"
14,> 6.30,"CS(=O)(=O)c1cccc(NC(=O)c2cc([N+](=O)[O-])cnc2Oc2ccc(OC(F)(F)F)cc2)c1 [Example 180, N-(3-methylsulfonylphenyl)-5-nitro-2-[4-(trifluoromethoxy)phenoxy]pyridine-3-carboxamide]"
15,> 6.30,"CS(=O)(=O)c1cccc(NC(=O)c2cc(Cl)cnc2Oc2ccc(OC(F)(F)F)cc2)c1 [Example 181, 5-chloro-N-(3-methylsulfonylphenyl)-2-[4-(trifluoromethoxy)phenoxy]pyridine-3-carboxamide]"

# Biological target: T2, Nav 1.8 (Mus musculus, UniProt Q6QIY3)
# T2 construct: host or cells: mouse, in vivo
# Assay: not given
# Conditions: mouse model of MS; cited from earlier work
# T2 sequence (Q6QIY3 whole entry): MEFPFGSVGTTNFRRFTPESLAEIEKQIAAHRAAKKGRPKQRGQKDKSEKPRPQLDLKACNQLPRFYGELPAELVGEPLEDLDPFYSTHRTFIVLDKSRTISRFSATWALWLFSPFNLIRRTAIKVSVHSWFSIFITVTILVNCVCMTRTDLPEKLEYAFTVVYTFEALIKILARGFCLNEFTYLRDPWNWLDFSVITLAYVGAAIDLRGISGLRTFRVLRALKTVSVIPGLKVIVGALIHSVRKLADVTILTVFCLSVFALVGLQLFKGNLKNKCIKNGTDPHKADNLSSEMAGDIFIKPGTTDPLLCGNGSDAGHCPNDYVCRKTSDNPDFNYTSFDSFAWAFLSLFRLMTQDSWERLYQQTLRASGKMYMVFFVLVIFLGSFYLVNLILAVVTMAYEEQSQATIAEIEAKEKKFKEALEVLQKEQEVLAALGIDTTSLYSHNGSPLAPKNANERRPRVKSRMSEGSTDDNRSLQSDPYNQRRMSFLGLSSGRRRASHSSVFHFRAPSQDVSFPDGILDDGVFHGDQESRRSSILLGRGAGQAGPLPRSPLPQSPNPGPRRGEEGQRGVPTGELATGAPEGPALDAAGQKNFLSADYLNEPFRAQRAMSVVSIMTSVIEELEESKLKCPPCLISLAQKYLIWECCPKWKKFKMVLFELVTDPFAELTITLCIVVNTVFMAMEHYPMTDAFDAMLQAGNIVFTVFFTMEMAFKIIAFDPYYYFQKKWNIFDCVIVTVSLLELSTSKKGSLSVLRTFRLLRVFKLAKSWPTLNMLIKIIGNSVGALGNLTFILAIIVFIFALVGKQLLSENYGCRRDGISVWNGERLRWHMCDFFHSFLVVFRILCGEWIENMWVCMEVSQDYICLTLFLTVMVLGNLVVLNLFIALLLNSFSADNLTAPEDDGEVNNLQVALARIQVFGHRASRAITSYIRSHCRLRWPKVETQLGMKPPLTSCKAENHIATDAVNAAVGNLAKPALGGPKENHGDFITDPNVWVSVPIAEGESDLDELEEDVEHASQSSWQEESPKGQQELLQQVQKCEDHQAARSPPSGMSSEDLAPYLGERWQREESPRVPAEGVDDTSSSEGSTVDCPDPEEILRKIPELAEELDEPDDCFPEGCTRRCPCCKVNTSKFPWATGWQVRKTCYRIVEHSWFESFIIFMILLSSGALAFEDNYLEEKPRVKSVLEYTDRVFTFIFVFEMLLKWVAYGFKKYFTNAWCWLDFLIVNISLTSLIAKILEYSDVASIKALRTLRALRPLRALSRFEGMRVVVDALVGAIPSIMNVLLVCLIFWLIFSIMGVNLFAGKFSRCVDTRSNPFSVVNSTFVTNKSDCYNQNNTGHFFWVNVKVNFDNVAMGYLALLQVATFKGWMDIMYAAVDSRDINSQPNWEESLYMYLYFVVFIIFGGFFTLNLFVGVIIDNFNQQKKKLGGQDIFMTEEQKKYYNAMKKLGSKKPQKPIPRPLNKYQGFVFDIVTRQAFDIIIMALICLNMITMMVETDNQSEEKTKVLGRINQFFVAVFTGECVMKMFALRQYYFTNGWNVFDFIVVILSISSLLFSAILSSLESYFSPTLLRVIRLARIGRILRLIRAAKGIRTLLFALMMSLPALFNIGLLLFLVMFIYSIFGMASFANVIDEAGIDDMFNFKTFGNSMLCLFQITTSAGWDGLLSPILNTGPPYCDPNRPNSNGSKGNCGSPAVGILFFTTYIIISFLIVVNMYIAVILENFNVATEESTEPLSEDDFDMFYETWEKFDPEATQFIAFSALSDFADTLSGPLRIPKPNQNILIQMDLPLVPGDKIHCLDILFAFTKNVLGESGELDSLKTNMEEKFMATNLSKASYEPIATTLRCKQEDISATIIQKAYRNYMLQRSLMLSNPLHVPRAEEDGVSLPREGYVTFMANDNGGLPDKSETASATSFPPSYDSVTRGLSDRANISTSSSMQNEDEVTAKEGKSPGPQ
row,Compound,effect on cerebellar deficits
1,"CNC(=O)c1ccc(-c2cc(Cl)cc(Cl)c2Cl)c(N)n1 [PF 01247324, N-methyl-6-amino-5-(2,3,5-trichlorophenyl)pyridine-2-carboxamide]",reverses cerebellar deficits

# Test system: Nav 1.8
# Assay: not given
# Conditions: PTHS models (ex vivo cell model, rodent models); cited from earlier work
row,Compound,effect on excitability phenotypes
1,"COc1cc(NC(=O)c2ccc(-c3ccc(Cl)cc3)o2)cc(OC)c1 [Example A-803467, 5-4(-chlorophenyl)-N-(3,5-dimethoxyphenyl)furan-2-carboxamide]",can rapidly reverse some of the excitability phenotypes
2,"COc1ccc(Cl)c(-c2ccc(NC(=O)c3ccnn3C)nc2N)c1 [PF 4531083, N-[6-amino-5-(2-chloro-5-methoxyphenyl)pyridin-2-yl]-1-methyl-1H-pyrazole-5-carboxamide]",can rapidly reverse some of the excitability phenotypes

# Reference: patent publication US12234221B2, “Pyridine carboxamide compounds for inhibiting NAV1.8” (Lieber Institute, Inc., priority 2018, dated 2025)
